From ChEMBL document CHEMBL4806967, “Heterocyclic kinase inhibitors and uses thereof” (2020) come the findings set out here.

Activity calls are given as the source filed them. The rule behind the calls is not given here.

For orientation: MTD means the highest dose tested that stayed within the study's limit of toxicity. As usually defined, the inhibition is the drop in the measured response relative to a control, in per cent. Higher therefore signals strong suppression.

Data set [1] in a line: Free drug concentration in mouse at 30 mg/kg, po measured after 2 hrs. Type of data set: ADME, organism-based. The conditions noted are these: in vivo.
A short description of data set [2]: Free drug concentration in mouse at 30 mg/kg, po measured after 6 hrs. In kind it is ADME, organism-based. The conditions noted are these: in vivo.
A short description of data set [3]: AUCextrap in CD-1 mouse at 1 mg/kg, iv. Type of data set: ADME, organism-based. The conditions noted are these: in vivo.
Data set [4] in a line: AUCextrap in CD-1 mouse at 30 mg/kg, po. In kind it is ADME, organism-based. The note with it: in vivo.
Data set [5] in a line: Free drug concentration in mouse at 30 mg/kg, po measured after 7 hrs. In kind it is ADME, organism-based. The conditions noted are these: in vivo.
Data set [6] is described as follows: Free drug concentration in mouse at 30 mg/kg, po measured after 24 hrs. In kind it is ADME, organism-based. The conditions noted are these: in vivo.
Data set [7] in a line: Toxicity in C57BL/6 mouse assessed as signs of intolerance by measuring change in posture upto 100 mg/kg, gavage twice daily measured after 7 days. The note with it: in vivo, po, 168 h, time 7 day. In kind it is organism-based.
A short description of data set [8]: Toxicity in C57BL/6 mouse assessed as signs of intolerance by measuring change in vocalization upto 100 mg/kg, gavage twice daily measured after 7 days. The conditions noted are these: in vivo, po, 168 h, time 7 day. In kind it is organism-based.
The nature of data set [9]: Toxicity in C57BL/6 mouse assessed as signs of intolerance by measuring ease of handling upto 100 mg/kg, gavage twice daily measured after 7 days. In kind it is organism-based. The note with it: in vivo, po, 168 h, time 7 day.
Data set [10] in a line: Toxicity in C57BL/6 mouse assessed as signs of intolerance by measuring change in lacrimation upto 100 mg/kg, gavage twice daily measured after 7 days. Type of data set: organism-based. The conditions noted are these: in vivo, po, 168 h, time 7 day.
Data set [11] is described as follows: Toxicity in C57BL/6 mouse assessed as signs of intolerance by measuring chromo-dacryorrhea upto 100 mg/kg, gavage twice daily measured after 7 days. Type of data set: organism-based. The note with it: in vivo, po, 168 h, time 7 day.
Data set [12] is described as follows: Toxicity in C57BL/6 mouse assessed as signs of intolerance by measuring change in salivation upto 100 mg/kg, gavage twice daily measured after 7 days. In kind it is organism-based. The conditions noted are these: in vivo, po, 168 h, time 7 day.
Data set [13] in a line: Toxicity in C57BL/6 mouse assessed as signs of intolerance by measuring change in intact fur/coat upto 100 mg/kg, gavage twice daily measured after 7 days. In kind it is organism-based. The note with it: in vivo, po, 168 h, time 7 day.
A short description of data set [14]: Toxicity in C57BL/6 mouse assessed as signs of intolerance by measuring change in arousal upto 100 mg/kg, gavage twice daily measured after 7 days. Type of data set: organism-based. The conditions noted are these: in vivo, po, 168 h, time 7 day.
The nature of data set [15]: Toxicity in C57BL/6 mouse assessed as signs of intolerance by measuring change in piloerection upto 100 mg/kg, gavage twice daily measured after 7 days. In kind it is organism-based. The conditions noted are these: in vivo, po, 168 h, time 7 day.
Data set [16] can be described thus: Toxicity in C57BL/6 mouse assessed as signs of intolerance by measuring change in normal motor movements upto 100 mg/kg, gavage twice daily measured after 7 days. In kind it is organism-based. The conditions noted are these: in vivo, po, 168 h, time 7 day.
The nature of data set [17]: Toxicity in C57BL/6 mouse assessed as signs of intolerance by measuring tail pinch upto 100 mg/kg, gavage twice daily measured after 7 days. In kind it is organism-based. The note with it: in vivo, po, 168 h, time 7 day.
Data set [18] is described as follows: Toxicity in C57BL/6 mouse assessed as signs of intolerance by measuring diarrhoea upto 100 mg/kg, gavage twice daily measured after 7 days. The conditions noted are these: in vivo, po, 168 h, time 7 day. In kind it is organism-based.
Data set [19] is described as follows: Toxicity in C57BL/6 mouse assessed as maximum tolerated dose administered through gavage twice daily measured after 7 days. The note with it: in vivo, po, time 7 day.
The test system of data set [20] is MC-38. The data set can be described thus: Anticancer activity against mouse MC38 cells subcutaneously implanted in C57BI/6N mouse assessed as tumour growth inhibition at 100 mg/kg, po once daily for 3 weeks. In kind it is functional. The conditions noted are these: read-out: TGI.
Data set [21] is described as follows: Toxicity in C57BI/6N mouse implanted subcutaneously with MC38 cells assessed as body weight loss at 30 to 100 mg/kg, po once daily for 3 weeks. Type of data set: organism-based, MC-38. The conditions noted are these: in vivo, dose 30-100 mg/kg.
Data set [22] has as its target hERG (KCNH2) (Homo sapiens, UniProt Q12809). The data set can be described thus: Inhibition of human ERG expressed in HEK cells at 10 uM by automated electrophysiology assay. In kind it is cell-based. The conditions noted are these: HEK cells that express human ERG.
Data set [23] relates to K562. The data set can be described thus: Anticancer activity against human K562 cells xenografted in SCID mouse assessed as increase in survival at 10 to 30 mg/kg, iv once daily for 5 days. In kind it is functional, organism-based. The conditions noted are these: dose 10-30 mg/kg, time 5.0 day. In general terms: A xenograft is tissue or cells of one species grown in another, often human tumour cells in immunodeficient mice.

Data set [24] can be described thus: Metabolic stability in mouse liver microsomes assessed as intrinsic clearance. Type of data set: ADME, Microsome. For orientation: Liver microsomes are vesicles of endoplasmic reticulum, rich in cytochrome P450 enzymes.

Chain of hERG (KCNH2) (Q12809 whole entry): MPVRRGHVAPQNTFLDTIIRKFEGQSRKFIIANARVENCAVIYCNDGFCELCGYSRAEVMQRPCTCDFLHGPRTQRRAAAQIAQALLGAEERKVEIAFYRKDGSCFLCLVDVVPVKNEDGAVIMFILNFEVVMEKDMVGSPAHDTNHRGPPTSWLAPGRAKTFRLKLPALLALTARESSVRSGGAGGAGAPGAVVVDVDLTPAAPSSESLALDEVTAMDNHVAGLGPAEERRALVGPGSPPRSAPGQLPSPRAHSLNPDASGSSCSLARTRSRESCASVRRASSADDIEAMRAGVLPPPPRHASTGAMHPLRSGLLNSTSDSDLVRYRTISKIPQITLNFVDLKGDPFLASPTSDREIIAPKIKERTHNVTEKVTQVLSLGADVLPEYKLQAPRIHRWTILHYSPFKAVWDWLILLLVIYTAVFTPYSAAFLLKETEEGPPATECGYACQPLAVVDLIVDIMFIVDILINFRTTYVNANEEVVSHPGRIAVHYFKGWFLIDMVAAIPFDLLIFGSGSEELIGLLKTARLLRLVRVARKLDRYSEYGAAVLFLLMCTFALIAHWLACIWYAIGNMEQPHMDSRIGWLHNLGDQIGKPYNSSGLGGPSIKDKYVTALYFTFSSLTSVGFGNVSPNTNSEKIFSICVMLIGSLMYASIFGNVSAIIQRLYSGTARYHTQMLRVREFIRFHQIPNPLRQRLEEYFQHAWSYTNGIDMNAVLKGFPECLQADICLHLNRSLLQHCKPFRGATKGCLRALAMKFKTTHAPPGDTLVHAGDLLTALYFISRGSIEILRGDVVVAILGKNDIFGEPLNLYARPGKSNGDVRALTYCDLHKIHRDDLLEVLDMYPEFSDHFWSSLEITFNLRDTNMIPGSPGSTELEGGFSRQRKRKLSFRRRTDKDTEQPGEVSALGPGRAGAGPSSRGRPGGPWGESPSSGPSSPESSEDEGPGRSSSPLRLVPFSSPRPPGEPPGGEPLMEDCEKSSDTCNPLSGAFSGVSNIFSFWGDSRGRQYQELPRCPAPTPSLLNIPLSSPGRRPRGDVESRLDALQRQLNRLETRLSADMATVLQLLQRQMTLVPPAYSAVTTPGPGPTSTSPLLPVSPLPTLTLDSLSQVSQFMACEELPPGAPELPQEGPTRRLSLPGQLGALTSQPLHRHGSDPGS

Consider `Cc1nc(Nc2ncc(C(=O)Nc3c(Cl)csc3Cl)s2)cc(N2CCN(CCO)CC2)n1`, for which the “Drug uptake(free)” value turned out to be 43 nM in data set [1] and 5 nM in data set [2].

As for `Cc1nc(Nc2ncc(C(=O)Nc3c(Cl)csc3C)s2)cc(N2CCN(CCO)CC2)n1`, the “Drug uptake(free)” value in data set [1] stood at 80 nM; in data set [2], 4 nM.

For the compound `Cc1nc(Nc2ncc(C(=O)Nc3c(C)csc3Cl)s2)cc(N2CCN(C)CC2)n1`, the “Drug uptake(free)” value came out at 44 nM in [1] and 8 nM in data set [2].

Consider `Cc1nc(Nc2ncc(C(=O)Nc3c(C)csc3Cl)s2)cc(N2CCN(CCO)CC2)n1`, for which the “%AUCextra” value in data set [3] and in data set [4] was 5.81% each time. Also, the “Drug uptake(free)” value in data set [1] turned out to be 32 nM; in data set [5] it was 3 nM; in data set [6] it was 0.1 nM. The Activity entry in data set [7], in data set [8], in data set [9], in data set [10], in data set [11] and in data set [12] was “Non-Toxic” in each case. Further, the Activity result in [13], in data set [14], in data set [15], in [16], in data set [17] and in [18] was “Non-Toxic” each time. Besides, the Activity entry in data set [21] is listed as “Non-Toxic”. For the same compound, the MTD at 168 h in data set [19] was not above 100 mg/kg. Also, the inhibition in vivo at 100 mg/kg in data set [20] amounted to 38%.

In turn, `Cc1nc(Nc2ncc(C(=O)Nc3c(C)cccc3Cl)s2)cc(N2CCN(CCO)CC2)n1.O` [DASATINIB] had an inhibition at 10 µM in [22] of 36%. Further, in data set [1], the “Drug uptake(free)” value was found to be 30 nM. Besides, the result in [23] was Active. The Activity result in [21] is “Non-Toxic”.

Regarding `Cc1nc(Nc2ncc(C(=O)Nc3ncccc3C)s2)cc(N2CCN(CCO)CC2)n1`, the CLint in data set [24] was found to be 38 µL/min/mg.
